Molecules are shown by their SMILES. The source made the active and inactive calls.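 Rule for the calls: active = compounds giving half or more protection of infected cells from virus-caused growth loss, again on retest; inactive = the rest.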 Bounds are passed on as bounds.

One may read the EC50 as the concentration needed to bring the measured effect to its halfway point. The IC50 is the concentration that inhibits the measured activity by half. Read a low IC50 as higher potency.

In this assay the test system is CEM cells HIV-1 protection, formazan growth assay. The experiment in a line: NCI AIDS Antiviral Assay. The conditions noted are these: for IC50: measured here: growth of uninfected CEM cells. An outline of the steps: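 Five concentrations of each compound were applied to infected and uninfected human CEM cells. Protection from HIV-1 was judged from growth measured with a soluble formazan assay.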

On to `S=c1nc(Cc2ccc(Cl)cc2)[nH][nH]1`, for which the EC50 is greater than 200 µM and the IC50 amounted to 56.2 µM. Turning to `O=C(CC(C(=O)c1cccs1)c1ccccc1)c1ccccc1O` (configuration not stated), the EC50 is greater than 200 µM and the IC50 was determined as 115 µM.

Consider `COc1ccc(OC)c2c3c(ccc12)C1(CCc2c(C)cccc21)OC3=O` (configuration not stated), for which the EC50 is greater than 55 µM and the IC50 stood at 8.13 µM. In the same order, the values of `O=C1c2ccccc2C(=O)N1/N=C\c1ccc(Br)cc1` are greater than 21.9 µM and greater than 21.9 µM.

For `Cc1cc(Br)cc(C)c1NC(=O)C(=O)C(C(=O)c1ccc(Cl)c(Cl)c1)C1OC(=O)c2ccccc21` (configuration not stated), the EC50 was greater than 49 µM and the IC50 is 6.76 µM. In the same order, the values of `O=C(Nc1ccc(S(=O)(=O)Nc2ccc(N=Nc3ccccc3)cc2)cc1)C(SC1=NC=NC2=NC=NC21)SC1=NC=NC2=NC=NC21` (configuration not stated) are greater than 20 µM and 3.16 µM. The like results for `CN(C)Cc1cc(C(=O)/C=C/c2ccc(Br)cc2)cc(CN(C)C)c1O` were, in that order, greater than 200 µM and 4.47 µM.

On to `CC(=O)OC1Cn2ccc[n+]2C1` (configuration not stated), for which the EC50 was greater than 200 µM and the IC50 was greater than 200 µM.

For the compound `C/C(=C/C(=O)O)CC/C=C(/C)C(=O)O`, the EC50 was greater than 479 µM and the IC50 was greater than 479 µM. Turning to `O=C(NNC(=O)c1ccccc1S)c1ccccc1S`, the EC50 was 4.17 µM and the IC50 was 14.5 µM. Turning to `CC(=O)O[C@H]1[C@H](OC(=O)CC(C)(O)CC(=O)O)C[C@]2(C)C3=C(CCC2C1(C)C)[C@]1(C)CC[C@H]([C@H]2CC[C@H](C(C)(C)O)OC2O)[C@@]1(C)[C@@H](O)C3` (some centres not stated), the EC50 is greater than 100 µM and the IC50 amounted to 49 µM. Take `CCCCCCCCCCCCC/C=C/C(O)C(CO)NC(=O)CCCCC` (configuration not stated): the outcome was inactive. For `O=S(=O)(O)CCCO`, the EC50 is greater than 200 µM and the IC50 was greater than 200 µM. With `Cc1ccc(C2OC(COCc3ccc(Cl)cc3)C(OCc3ccc(Cl)cc3)C2O)cc1` (configuration not stated), the result was inactive. For the compound `Cc1ccc(S[C@@H](C)[C@@](O)(C(N)=O)c2ccccc2)cc1`, the EC50 is greater than 200 µM and the IC50 came to 30.2 µM.

Take `COc1cnc([C@H]2CCC3[C@@H]4CC=C5C[C@@H](OC(C)=O)CC[C@]5(C)C4CC[C@@]32C)s1` (some centres not stated): the EC50 was greater than 21.9 µM and the half-maximal inhibitory concentration (IC50) is greater than 21.9 µM.

Take `O=C1CSC(c2c[nH]c3ccccc23)N1c1cccc(Cl)c1` (configuration not stated): the EC50 was greater than 21.9 µM and the IC50 was greater than 21.9 µM. As to `OCC1OC(Oc2cc(O)cc(CCc3ccc(O)c(O)c3)c2)C(O)C(O)C1O` (configuration not stated), the EC50 was greater than 617 µM and the IC50 came to 41.7 µM. In the same order, the values of `Cc1ccnc(NS(=O)(=O)c2ccc(NC(=O)c3ccccc3SC(=O)CCCC[n+]3ccccc3)cc2)n1` are 15.1 µM and 102 µM.

For `COc1cc(C(c2cccc3ccccc23)N2C(=O)CCC2C(=O)NCc2ccccc2)cc(OC)c1OC` (configuration not stated), the EC50 was greater than 200 µM and the IC50 is greater than 200 µM.

With `O=[N+]([O-])c1ccc(Cl)cc1C1ON=C(c2ccccc2)N1C12CC3CC(CC(C3)C1)C2` (configuration not stated), the EC50 was greater than 100 µM and the IC50 is greater than 100 µM. For `C1CC2N=C3OCCC3N=C2O1` (configuration not stated), the EC50 is greater than 1510 µM and the IC50 was greater than 1510 µM. On to `COc1cc(N=Nc2cc(NC(C)=O)c(N=Nc3ccc(S(=O)(=O)O)cc3)cc2S(=O)(=O)O)c(C)cc1N=Nc1ccc(NC(=O)c2ccc(N)cc2)cc1C`, for which the EC50 is 8.71 µM and the IC50 worked out at 97.7 µM. In the same order, the values of `O=C(CCC(=O)OCC1OC(O)(CC2OC(CO)C(O)C(O)C2O)C(O)C1O)OCc1ccccc1` (configuration not stated) are greater than 200 µM and greater than 200 µM. In the same order, the values of `O=C1[C@@H]2[C@H](C(=O)N1c1ccccc1)[C@H]1CC[C@H]2N1C(=O)c1ccccc1` are greater than 55 µM and greater than 55 µM.

As for `O=C(N/N=C/c1ccco1)c1ccc(OCc2nc3ccccc3[nH]2)cc1`, the EC50 is greater than 200 µM and the IC50 was 83.2 µM. The like results for `COc1cc(C(=O)O)c(-c2cc3c(cc2C=O)OCO3)c(OC)c1OC` were, in that order, greater than 692 µM and greater than 692 µM.

Values taken from PubChem BioAssay AID179 (DTP/NCI, 2004).
